# “And” between values parts separate entries of the source, which are not always exact repeats. Equal entries are not always repeated.
# Target: Reverse transcriptase protein (Human immunodeficiency virus 1, UniProt Q9WJQ1)
# Experiment: HIV-1 RT Inhibitory Assay
# Conditions: 25 °C
# Description: The final pH of the reactions was 7.7. After extension for 3 min, the reactions were stopped by adding 12.5 μL of 2× gel loading buffer and the samples were resolved in a 16% denaturing polyacrylamide−7 M urea gel.
smiles,measurement,value
Cc1ccnc2c1NC(=O)c1cccnc1N2C1CC1 [BI-RG-587],IC50,16 µM and 4.3 µM

# Reference: BindingDB's records for doi:10.1021/acs.biochem.6b00943 (University of Maryland, 2017)
